Laboratory results taken from publication PMC9468151, “Identification of a binding site on soluble RANKL that can be targeted to inhibit soluble RANK-RANKL interactions and treat osteoporosis” (Nature Communications, 2022).
Several values for one entry are separate records, joined by “and”; a condition that tells them apart may be missing. Equal entries are not always repeated. Entries after “also recorded” stand apart in the source; their conditions may differ.

B1: K283A (protein, UniProt Q9ESE2 69-318, looked up, variant K283A)
extracellular domain: LYFRAQMDPNRISEDSTRCFYRILRLRENTGLQDSTLESEDTEALPDSCRRMKQAFQGAVQRELQHIVGPQRFSGVPAMMEGSWLDVARRGKPEAQPFAHLTINAADIPSGSHKVSLSSWYHDRGWAKISNMTLSNGKLRVNQDGFYYLYANICFRHHETSGSVPADYLQLMVYVVKTSIKIPSSHNLMKGGSTKNWSGNSEFHFYSINVGGFFALRAGEEISVQVSNPSLLDPDQDATYFGAFKVQDID
modifications: extracellular domain

Legend:
Format in all cases: cell-based, mouse
[1] = tested on: RAW264.7 cells; assay: In vitro cytotoxicity assay (MTT); conditions: RAW264.7, MTT
Experimental: MTT assay was used to determine cell viability. RAW264.7 cells in the logarithmic growth phase were cultured in 96-well plates with 6 × 10^3 cells in each well and incubated for 24 h. The surviving cells were then determined by MTT method. […] Cell growth inhibition ratio was calculated as follows: Cellgrowthinhibitionratio%=ODvehicle−ODtreaed/ODvehicle×100%
Cell cytotoxicity CC50 value were conducted by using Nonlinear regression (curve fit) analytic procedure in GraphPad Prism 8.

[2] = tested on: sRANKL induced osteoclast differentiation; assay: In vitro anti-osteoclastogenesis activity determination (TRAP staining); parameters: key to inhibition of osteoclastogenesis, dose-response (fig. S2a): % inhibition = 100 − (treated−unstimulated)/(untreated−unstimulated)×100; conditions: for IC50: read-out: OC IC50 (anti-osteoclastogenesis activity); for inhibition of osteoclastogenesis, dose-response (fig. S2a): three replicate columns
Experimental: (§1) Mouse osteoclasts were cultured according to the previously reported protocols. BMMs were plated in 96-well plates at a density of 6 × 10^3 cells/well with complete medium containing 10 ng/mL M-CSF. The following day, cells were then stimulated with 100 ng/mL sRANKL in the presence or absence of compounds with different concentrations every 2 days until osteoclasts formed. In order to calculate IC50, we set 9 concentrations for each compound and untreated and non-sRANKL unstimulating group as controls, each with triplicated repeated wells. After 5 days, cells were fixed with 4% paraformaldehyde and then applied TRAP-staining to identify osteoclasts by using the TRAP-staining kit. Osteoclasts number (OC No.) in each well was counted and the percentage of inhibition ratio was calculated as follows:1 OCinhibitoryratio%=100−OCNo.treated−OCNo.unstimulating/OCNo.untreated−OCNo.unstimulating×100%
The dosages and their correspondent osteoclastogenesis inhibitory activity curve and IC50 value were conducted by using Nonlinear regression (curve fit) analytic procedure in GraphPad Prism 8. Photographs of individual wells were taken using Leica microscope.

[3] = tested on: BMM cells; assay: Osteoclastogenic assay of WT, single-point mutated sRANKL and L-RANKL; conditions: three replicates
Experimental: Fig. 1 Evidence for selective sRANKL inhibition binding site identification. a Proposed small molecule binding site that can be used to distinguish sRANKL from mRANKL. b he probabilities that distances of residue pairs greater than 1.8 Å in sRANKL (red) and mRANKL (blue). The data are calculated based on conformation trajectories from 100 ns MD simulations on sRANKL and mRANKL. c SDRP frequency in sRANKL and mRANKL. d, e The distance of Y236-D303 and K182-R224 in sRANKL and mRANKL after MD simulation. f, g and h Osteoclastogenesis function of single-point mutated rat sRANKL and WT sRANKL. Representative TRAP staining images from one well each, with triplicate repeats wells of BMM cells isolated from C57BL/6 mice cultured with colony-stimulating factor 1 (M-CSF (10 ng/mL) and either varying WT sRANKL or mutated sRANKL (25–200 ng/mL). The number of osteoclasts counted in the osteoclastogenesis assay with mutated sRANKL. Data were presented as group mean ± s.d., n = 3 biological replicates.
as §1
GST-sRANKL was expressed and purified following a previously reported protocol. Rat sRANKL (aa160–318) cDNA was cloned into the bacterial expression vectors pGEX-3X and pGEX-2T with purification GST tag and resultant plasmid named p3rRANKL1. Label-free sRANKL protein in this study was obtained by removing His6-sumo tag from fusion protein His6-sumo-sRANKL. The DNA sequence encoding sRNAKL was inserted downstream the His6-sumo tag of a modified pET20b (+) plasmid. Single point mutations of sRANKL (K182A, R192A, W194A, R224A, H226A, E227A, Q238A, Y242A, H254A, N255A, E270A, K283A, D301A, D303A, or D305A) were constructed by PCR amplification using primer pairs to introduce the designed mutations to pET20b-His6-sumo-sRANKL recombinant plasmid. L-RANKL (binary-RANKL) plasmid was constructed as follow: the consecutive DNA sequence sequentially encoding His6-sumo tag and two sRANKL monomers was cloned into pET20b by PCR amplification using primer pairs to introduce the following restriction enzyme sites to the coding sequences: Nde I-His6-sumo-sRANKL-Bam HI and Bam HI-sRNAKL-Xho I. Each PCR product was double digested with the appropriate restriction enzymes (Thermo) and ligated to the pET20b vector between the Nde I and Xho I sites. Gly-Ser-Gly-Ser was designed to link the two monomers. After confirmed by sequence analysis, the recombinant plasmids were transformed into Escherichia coli BL21 (DE3) cells. The transformed cells were grown in LB media till OD600 about 0.6, then 0.15 mM IPTG was added to induce protein overexpression for 16 h at 20 °C.

[4] = BMMs, M-CSF + 100 ng/mL sRANKL, 5 days, TRAP staining

Molecule | CC50 [1] [µM] | OC IC50 (anti-osteoclastogenesis activity) [2, 4] | IC50 [2, 4] | inhibition of osteoclastogenesis, dose-response (fig. S2a) ([2]; conc. 0.0023464 μM) | inhibition of osteoclastogenesis, dose-response (fig. S2a) ([2]; conc. 0.00774313 μM) | inhibition of osteoclastogenesis, dose-response (fig. S2a) ([2]; conc. 0.0255523 μM) | inhibition of osteoclastogenesis, dose-response (fig. S2a) ([2]; conc. 0.0843226 μM) | inhibition of osteoclastogenesis, dose-response (fig. S2a) ([2]; conc. 0.278265 μM) | inhibition of osteoclastogenesis, dose-response (fig. S2a) ([2]; conc. 0.918274 μM) | inhibition of osteoclastogenesis, dose-response (fig. S2a) ([2]; conc. 3.0303 μM) | inhibition of osteoclastogenesis, dose-response (fig. S2a) ([2]; conc. 10 μM) | inhibition of osteoclastogenesis, dose-response (fig. S2a) ([2]; conc. 33 μM) | osteoclast formation (fig. S4a) ([3]; 25 ng/mL) | osteoclast formation (fig. S4a) ([3]; 50 ng/mL) | osteoclast formation (fig. S4a) ([3]; 100 ng/mL) | osteoclast formation (fig. S4a) ([3]; 200 ng/mL)
CCOC(=O)c1sc(NC(=O)C(=NNc2ccccc2CO)C(C)=O)nc1C [S3-07] | 49.1 | inactive; also recorded: lose osetoclastogenesis inhibitory activities | 2.33 µM |  |  |  |  |  |  |  |  |  |  |  |  | 
CC(C)OC(=O)C(=NNc1ccccc1C(=O)O)C(=O)Nc1ccccn1 [S3-15-4] | 57.2 |  | 0.62 µM | 19.4737 and 18.6842 and 17.1053 | 16.7105 and 16.3158 and 13.9474 | 17.8947 and 11.579 and 18.2895 | 16.7105 and 20.2632 and 17.8947 | 34.8684 and 32.5 and 38.8158 | 53.8158 and 43.9474 and 58.5526 | 73.9474 and 71.9737 and 70.3947 | 88.5526 and 83.421 and 86.579 | 100 |  |  |  | 
CC(=O)C(=NNc1ccccc1C(=O)O)C(=O)N1CCc2ccccc2C1 [S3-17] | 82.1 |  | 6.74 µM | 4.167 and -4.167 and 1.19 | 7.7381 and 11.9048 and 8.036 | 13.9881 and 14.2857 and 19.3452 | 22.9167 and 21.7262 and 26.4881 | 30.3571 and 29.4643 and 30.6548 | 35.1191 and 33.0357 and 33.6309 | 38.6905 and 40.1786 and 34.5238 | 50.8929 and 50 and 48.8095 | 63.3929 and 63.6905 and 75.5952 |  |  |  | 
CC(=O)C(=NNc1ccccc1C(=O)O)C(=O)Nc1nc(C)cs1 [S3-08] | > 100 |  | 2.33 µM and 2.34 µM | 1.304 and -3.21 and -2.307 | 3.711 and 2.508 and 1.304 | 3.109 and 3.41 and 5.517 | 6.118 and 6.419 and 8.225 | 18.7563 and 19.0572 and 20.2608 | 29.8897 and 31.0933 and 35.005 | 50.9529 and 40.7222 and 44.6339 | 83.7512 and 85.2558 and 78.6359 | 100 |  |  |  | 
CC(=O)C(=NNc1ccccc1C(=O)O)C(=O)Nc1ccc(C#N)cn1 [S3-15-1] | 81.2 |  | 1.05 µM | 2.8169 and -0.3521 and -2.465 | 2.113 and 9.859 and 10.5634 | 19.3662 and 16.1972 and 17.6056 | 28.169 and 26.7606 and 24.2958 | 28.169 (2×) and 24.2958 | 45.0704 and 44.7183 (2×) | 59.8591 and 57.7465 and 60.9155 | 77.4648 and 79.5775 and 76.0563 | 100 |  |  |  | 
CCOC(=O)c1sc(NC(=O)C(=NNc2ccccc2O)C(C)=O)nc1C [S3-06] | 202 |  | 1.4 µM | -2.117 and 4.235 and 7.166 | 2.28 and -2.606 and 3.746 | 1.792 and 3.746 and -0.1629 | 4.723 and 7.166 and -1.14 | 27.1987 and 24.2671 and 26.2215 | 39.4137 and 37.4593 and 42.3453 | 68.7296 and 60.9121 and 64.3322 | 81.9218 (2×) and 82.899 | 100 |  |  |  | 
CCOC(=O)c1sc(NC(=O)C(=NNc2ccccc2C(=O)O)C(=O)OC(C)C)nc1C [S3-22] | 81.2 |  | 0.4 µM | 1.224 and 0.8568 and 0.4896 | 0.8568 and 1.958 and 3.427 | 4.896 and 10.0367 and 5.263 | 26.1934 and 25.0918 and 21.4198 | 44.1861 and 41.6157 and 42.7173 | 58.8739 and 65.1163 and 60.7099 | 88.2497 and 86.7809 and 89.3513 | 100 | 100 |  |  |  | 
CC(=O)C(=NNc1ccccc1C(=O)O)C(=O)Nc1nc2ccccc2s1 [S3-16] | 69.2 |  | 0.73 µM |  | 3.543 and 4.724 and 0.7874 | 9.449 and 8.661 (2×) | 16.9291 and 24.4094 and 12.9921 | 30.315 and 29.5276 and 31.1024 | 51.1811 and 52.7559 and 54.7244 | 73.2284 and 71.6535 and 75.1968 | 82.6772 and 95.2756 and 99.2126 | 100 |  |  |  | 
B1 |  |  |  |  |  |  |  |  |  |  |  |  | 4 (2×) and 8 | 11 | 15 and 19 and 17 | 23 and 19 and 24
